The record followed here is paper PMC10950897, “VCF1 is a p97/VCP cofactor promoting recognition of ubiquitylated p97-UFD1-NPL4 substrates” (Nature Communications, 2024).

The subject of data set [1] is p97 with poly-ubiquitylated mEos3.2. Put plainly: In vitro p97 unfoldase assay (mEos3.2). Format: biochemical, human. The following applies: p97 100 nM hexamer, UFD1-NPL4 500 nM, VCF1 300 nM, 37 °C. As to the method:
Di-ubiquitin-fused mEos3.2 fluorescent protein (diUb-mEos3.2) and ubiquitylation cascade proteins mUbe1, gpc78-ubc7 fusion and ubiquitin were recombinantly expressed in E. coli and purified as described previously. diUb-mEos3.2 substrate was enzymatically polyubiquitylated as described previously. […] The unfolding activity of p97 was monitored in vitro by measuring the decrease in diUb^n-mEos3.2 fluorescence. For this, diUb^n-mEos3.2 (35 nM), p97 (100 nM hexamer), UFD1-NPL4 (500 nM) and VCF1 (300 nM) were mixed as indicated in Eos assay buffer (50 mM HEPES, pH 7.5; 150 mM KCl; 2 mM MgCl2; 5% glycerol; 1 mM DTT) and pre-warmed to 37 °C for 5 min before ATP (2 mM) was added to start the reaction. Unfolding of red mEos3.2 fluorescence was measured every 15 s in a Varian Cary Eclipse spectrofluorometer (excitation: 500 nm; emission: 520 nm) and normalized to the first value after addition of ATP.

Another data set has as its system Ub(G76V)-GFP, U2OS cells. The data set can be described thus: QIBC of Ub(G76V)-GFP in cells overexpressing FLAG-tagged proteins. Format: cell-based, human. The following applies: FLAG-tagged plasmids, FLAG-positive cells. As to the method: U2OS (catalog no. HTB-96) cells were obtained from ATCC. HEK293-EBNA1-6E cells were a kind gift from Yves Durocher (National Research Council Canada, Montreal, Canada). All mammalian cell lines were cultured under standard conditions at 37 °C and 5% CO2 in DMEM (Thermo) supplemented with 10% FBS (v/v) and penicillin-streptomycin (Thermo). Recombination cloning-compatible U2OS cells were generated using the Flp-In T-Rex Core Kit (Thermo) according to the manufacturer’s instructions and maintained under selection using Blasticidin (Invivogen) and Zeocin (Thermo). To generate cell lines stably expressing GFP-VCF1, U2OS Flp-In T-Rex cells (Thermo) were co-transfected with GFP-VCF1 constructs and pOG44 (Thermo) plasmids, followed by selection with Hygromycin (Invitrogen). Single clones were carefully screened for uniform expression of ectopic GFP-VCF1 at low levels and maintained under selection with Blasticidin and Hygromycin. To induce GFP-VCF1 expression, cells were treated with Doxycycline (DOX) (0.5 µg/ml) for 16 h. U2OS cell lines stably expressing Ub(G76V)-GFP or Ub(G76V)-GFP-20AA were described previously. A U2OS cell line stably expressing Ub(G76V)-GFP-NES was generated under G418 (Invivogen) selection. […]
Mammalian cells grown on coverslips were fixed in formalin buffer (VWR) for 15 min at room temperature (RT). […] Quantitative image-based cytometry (QIBC) was performed as described. […]

The test system of data set [2] is p97 (WT, truncations, Y143A). The data set can be described thus: In vitro binding, StrepTactin pulldown of Strep-HA-VCF1 with purified p97 proteins. Also on record: species or system human. As to the method:
(§1) All in vitro binding experiments were performed in EBC or RIPA buffer as indicated. Recombinant Biotin-tagged K48-linked poly-ubiquitin chains (2−7) and K48-linked poly-ubiquitin chains (2−16) were purchased from R&D Systems and Enzo Life Science, respectively. Recombinant proteins were incubated with Strep-Tactin Sepharose (IBA), Glutathione agarose (Gold Biotechnology) or […] Fab-trap agarose (ChromoTek) overnight on an end-over-end rotator at 4 °C, washed six times with EBC or RIPA buffer, and resuspended in 2×Laemmli sample buffer. For p97, VCF1 or p47 pulldowns, antibodies (0.5 µg/sample) were coupled to agarose beads, incubated with recombinant proteins or cell lysates and washed with the indicated buffer. To assess p97-UFD1-NPL4 binding to ubiquitylated proteins in total cell extracts, U2OS cells were lysed in EBC buffer supplemented with protease and phosphatase inhibitors, sonicated and incubated on ice for 10 min. Lysates were cleared by centrifugation for 10 min at 16,100 × g. Cell lysate (40 µg) was added to recombinant proteins in EBC buffer, incubated overnight on the rotator with […] Fab-trap agarose (ChromoTek), and beads were washed six times.

The subject of data set [3] is p97 with UFD1-NPL4, p47 or FAF1. Put plainly: In vitro binding with p97 cofactors (GST, StrepTactin, p47, p97 or FLAG pulldown). Also on record: species or system human. Here is the method:
as §1

Consider “VCF1: human FAM104A isoform 1, 186 amino acids (UniProt Q969W3); recombinant Strep-HA-tagged”, for which the “effect on p97-UFD1-NPL4-mediated unfolding of mEos3.2” value in data set [1] is “did not accelerate the already highly efficient p97-UFD1-NPL4-mediated unfolding of poly-ubiquitylated mEos3.2 in vitro”. For the same substance, the “effect of overexpression on Ub(G76V)-GFP” value in the data set with Ub(G76V)-GFP, U2OS cells is given as “stabilized Ub(G76V)-GFP similar to the effect of elevating NPL4 or p47 expression levels”. Also, the p97 domain bound entry in data set [2] (full-length and truncated His6-p97 proteins) is recorded as “interacts with the p97 N-domain”. The “in vitro interaction with p97” value in data set [2] (purified His6-p97 WT, RIPA buffer) was “readily interacted in vitro”. The “co-purification of UFD1-NPL4 with immobilized VCF1” value in data set [3] (StrepTactin pulldown) was “dependent on the presence of p97 and the p97-binding proficiency of VCF1”. Also, the “VCF1 in p47 IP” value in data set [3] (VCF1:p47 ratio approx. 1:3) was “little if any VCF1 is detectable in the p47 IP”; in data set [3] (VCF1:p47 ratio approx. 2:1), “VCF1 now becomes detectable in p47 IPs”. Also, the “competition with p47 for p97” value in data set [3] (VCF1:p47 ratio approx. 8:1) is “more efficiently outcompetes p47 binding to p97”. Also, in data set [3] (high/increasing concentrations), the “displacement of p97-bound cofactors” value was “displaced p47 and UFD1-NPL4 from p97 in vitro”. The “simultaneous binding with UFD1-NPL4, p47 or FAF1 to p97” value in data set [3] (moderate concentrations of VCF1) was “clearly permissive for the simultaneous binding”. Further, in data set [3] (purified Strep-HA-VCF1, no p97), the “p97-independent enrichment in UFD1 pulldowns” value is given as “modest p97-independent enrichment”. Also, the “direct interaction with UFD1-NPL4” value in data set [3] (purified proteins, no p97) is “did not directly interact with UFD1-NPL4”.
